Results published in US4588692A, “Antibiotic compounds, process for the preparation and pharmaceutical compositions thereof, methods of treatment therewith and Staphylococcus bacteria” (priority 1979, dated 1986).

System: S. epidermidis NCIB 11536
Test: Antibiotic disc sensitivities of the producer strain
Assay type: cell-based
Conditions: for Sensitive to: Amount of antibiotic/disc: strain sensitive at this disc content

Compound | Sensitive to: Amount of antibiotic/disc | Novobiocin sensitivity (5 μg disc)
CC1(C)S[C@@H]2[C@H](NC(=O)Cc3ccccc3)C(=O)N2[C@H]1C(=O)O [penicillin G] | 1 unit | 
gentamycin | 10 µg | 
CO[C@@H]1[C@@H](OC(N)=O)[C@@H](O)[C@H](Oc2ccc3c(O)c(NC(=O)c4ccc(O)c(CC=C(C)C)c4)c(=O)oc3c2C)OC1(C)C [novobiocin] |  | sensitive
